From the supplement of paper PMC10733146

How the values were obtained:
Assay in all cases: viability relative to DMSO control (fraction); higher = less drug effect (more viable cells)
Details in all cases: 48 h
[1] = test system: primary AML patient cells (S017)
How it was run: (§1)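 Compounds were pre-plated at five concentrations, one well each, in 384-well plates, and primary mononuclear tumour cells were plated on them at 4 × 10^4 cells per well. The cells, fresh or cryopreserved, had been Ficoll-isolated from blood or bone marrow or taken from processed lymph node. After 48 h at 37 °C and 5% CO2 in RPMI-1640 with penicillin/streptomycin, L-glutamine and human serum, viability was read as CellTiter-Glo luminescence relative to the median of 16 inner DMSO wells.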

[2] = test system: primary AML patient cells (S085)
How it was run: as §1

[3] = test system: primary AML patient cells (S071)
How it was run: as §1

[4] = test system: primary AML patient cells (S081)
How it was run: as §1

[5] = test system: primary AML patient cells (S025)
How it was run: as §1

[6] = test system: primary AML patient cells (S002)
How it was run: as §1

[7] = test system: primary AML patient cells (S021)
How it was run: as §1

[8] = test system: primary AML patient cells (S011)
How it was run: as §1

[9] = test system: primary AML patient cells (S019)
How it was run: as §1

[10] = test system: primary CLL patient cells (S043)
How it was run: as §1

[11] = test system: primary BL patient cells (S005)
How it was run: as §1

[12] = test system: primary AML patient cells (S060)
How it was run: as §1

[13] = test system: primary B-PLL patient cells (S016)
How it was run: as §1

[14] = test system: primary ALL patient cells (S088)
How it was run: as §1

SMILES: Nc1nc(Cl)nc2c1ncn2[C@@H]1O[C@H](CO)[C@@H](O)[C@@H]1F [Clofarabine]
- viability ([1]; 0.024 µM): 1.06
- viability ([1]; 0.12 µM): 0.91
- viability ([1]; 0.6 µM): 0.538
- viability ([1]; 3 µM): 0.3
- viability ([1]; 15 µM): 0.149
- viability ([2]; 0.024 µM): 0.897
- viability ([2]; 0.12 µM): 0.41
- viability ([2]; 0.6 µM): 0.286
- viability ([2]; 3 µM): 0.468
- viability ([2]; 15 µM): 0.555
- viability ([3]; 0.024 µM): 0.646
- viability ([3]; 0.12 µM): 0.298
- viability ([3]; 0.6 µM): 0.219
- viability ([3]; 3 µM): 0.217
- viability ([3]; 15 µM): 0.211
- viability ([4]; 0.024 µM): 1.08
- viability ([4]; 0.12 µM): 1.07
- viability ([4]; 0.6 µM): 0.861
- viability ([4]; 3 µM): 0.684
- viability ([4]; 15 µM): 0.415
- viability ([5]; 0.024 µM): 0.528
- viability ([5]; 0.12 µM): 0.46
- viability ([5]; 0.6 µM): 0.478
- viability ([5]; 3 µM): 0.492
- viability ([5]; 15 µM): 0.463
- viability ([6]; 0.024 µM): 0.696
- viability ([6]; 0.12 µM): 0.427
- viability ([6]; 0.6 µM): 0.375
- viability ([6]; 3 µM): 0.387
- viability ([6]; 15 µM): 0.329
- viability ([7]; 0.024 µM): 0.755
- viability ([7]; 0.12 µM): 0.425
- viability ([7]; 0.6 µM): 0.286
- viability ([7]; 3 µM): 0.21
- viability ([7]; 15 µM): 0.201
- viability ([8]; 0.024 µM): 0.762
- viability ([8]; 0.12 µM): 0.535
- viability ([8]; 0.6 µM): 0.299
- viability ([8]; 3 µM): 0.17
- viability ([8]; 15 µM): 0.0898
- viability ([9]; 0.024 µM): 0.918
- viability ([9]; 0.12 µM): 0.476
- viability ([9]; 0.6 µM): 0.392
- viability ([9]; 3 µM): 0.431
- viability ([9]; 15 µM): 0.345
- viability ([10]; 0.024 µM): 1
- viability ([10]; 0.12 µM): 0.888
- viability ([10]; 0.6 µM): 0.457
- viability ([10]; 3 µM): 0.284
- viability ([10]; 15 µM): 0.157
- viability ([11]; 0.024 µM): 0.929
- viability ([11]; 0.12 µM): 0.925
- viability ([11]; 0.6 µM): 0.761
- viability ([11]; 3 µM): 0.882
- viability ([11]; 15 µM): 0.735
- viability ([12]; 0.024 µM): 1.09
- viability ([12]; 0.12 µM): 1.06
- viability ([12]; 0.6 µM): 0.723
- viability ([12]; 3 µM): 0.402
- viability ([12]; 15 µM): 0.126
- viability ([13]; 0.024 µM): 0.711
- viability ([13]; 0.12 µM): 0.332
- viability ([13]; 0.6 µM): 0.0601
- viability ([13]; 3 µM): 0.034
- viability ([13]; 15 µM): 0.0319
- viability ([14]; 0.024 µM): 0.569
- viability ([14]; 0.12 µM): 0.254
- viability ([14]; 0.6 µM): 0.203
- viability ([14]; 3 µM): 0.173
- viability ([14]; 15 µM): 0.109

SMILES: Nc1nc(=S)c2[nH]cnc2[nH]1 [Thioguanin]
- viability ([1]; 0.024 µM): 0.97
- viability ([1]; 0.12 µM): 1.05
- viability ([1]; 0.6 µM): 0.785
- viability ([1]; 3 µM): 0.561
- viability ([1]; 15 µM): 0.38
- viability ([2]; 0.024 µM): 1.03
- viability ([2]; 0.12 µM): 1
- viability ([2]; 0.6 µM): 0.714
- viability ([2]; 3 µM): 0.402
- viability ([2]; 15 µM): 0.24
- viability ([3]; 0.024 µM): 1.02
- viability ([3]; 0.12 µM): 0.879
- viability ([3]; 0.6 µM): 0.577
- viability ([3]; 3 µM): 0.403
- viability ([3]; 15 µM): 0.228
- viability ([4]; 0.024 µM): 1.09
- viability ([4]; 0.12 µM): 0.899
- viability ([4]; 0.6 µM): 0.621
- viability ([4]; 3 µM): 0.465
- viability ([4]; 15 µM): 0.319
- viability ([5]; 0.024 µM): 0.945
- viability ([5]; 0.12 µM): 0.751
- viability ([5]; 0.6 µM): 0.615
- viability ([5]; 3 µM): 0.279
- viability ([5]; 15 µM): 0.152
- viability ([6]; 0.024 µM): 1.1
- viability ([6]; 0.12 µM): 1.09
- viability ([6]; 0.6 µM): 0.949
- viability ([6]; 3 µM): 0.66
- viability ([6]; 15 µM): 0.446
- viability ([7]; 0.024 µM): 1.11
- viability ([7]; 0.12 µM): 0.984
- viability ([7]; 0.6 µM): 0.918
- viability ([7]; 3 µM): 0.672
- viability ([7]; 15 µM): 0.435
- viability ([8]; 0.024 µM): 1.02
- viability ([8]; 0.12 µM): 0.977
- viability ([8]; 0.6 µM): 0.658
- viability ([8]; 3 µM): 0.339
- viability ([8]; 15 µM): 0.239
- viability ([9]; 0.024 µM): 1.04
- viability ([9]; 0.12 µM): 1.18
- viability ([9]; 0.6 µM): 0.65
- viability ([9]; 3 µM): 0.497
- viability ([9]; 15 µM): 0.57
- viability ([10]; 0.024 µM): 0.884
- viability ([10]; 0.12 µM): 0.798
- viability ([10]; 0.6 µM): 0.685
- viability ([10]; 3 µM): 0.546
- viability ([10]; 15 µM): 0.338
- viability ([11]; 0.024 µM): 0.938
- viability ([11]; 0.12 µM): 0.665
- viability ([11]; 0.6 µM): 0.823
- viability ([11]; 3 µM): 0.673
- viability ([11]; 15 µM): 0.261
- viability ([12]; 0.024 µM): 1.03
- viability ([12]; 0.12 µM): 0.969
- viability ([12]; 0.6 µM): 0.697
- viability ([12]; 3 µM): 0.643
- viability ([12]; 15 µM): 0.424
- viability ([13]; 0.024 µM): 0.919
- viability ([13]; 0.12 µM): 0.71
- viability ([13]; 0.6 µM): 0.403
- viability ([13]; 3 µM): 0.23
- viability ([13]; 15 µM): 0.212
- viability ([14]; 0.024 µM): 1.03
- viability ([14]; 0.12 µM): 1.08
- viability ([14]; 0.6 µM): 0.904
- viability ([14]; 3 µM): 0.565
- viability ([14]; 15 µM): 0.281
